Experimental findings from patent publication US9274101B2 (BIOLOG, Inc., priority 2001, dated 2016) are described below.

One assay has as its system HepG2 cells. Briefly: HepG2 cells cultured on CYTODEX 3 microcarriers, energy sources. Format: cell-based, human. The settings on record: for activity at 30 µM / activity at 100 µM / activity at 330 µM / activity at 1000 µM / activity at 3300 µM / activity at 10000 µM / activity at 15000 µM / activity at 20000 µM: Homo sapiens, HepG2, 68 h, read-out: Responses of HepG2 Cells Cultured on Microcarriers After 68 hours in Culture and a 4 hour Color Development Period. A digest of the protocol:
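HepG2 cells on CYTODEX 3 microcarriers, held in methylcellulose-containing DME with 10% HI FBS lacking glucose, glutamine and pyruvate, exposed to test energy sources at 0.033–20 mM final. After 68 h at 37 °C, MTS/PMS read at 490 nm (ref 650 nm) after 4–8 h; cell-free background subtracted, normalized to % no-energy-source control.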

In another assay the test system is E. coli MG1655. Type of assay: cell-based, Escherichia coli.
The next assay has as its system HL-60 cells. As to the kind of experiment: HL-60 cells in PM1 and PM2 plates, MTS/MPMS color, % negative control. Format: cell-based, human. The following applies: L-glutamine 13.7 mM (well E1); citric acid 10.4 mM (well F2).
Assay [1] deals with Salmonella typhimurium auxotrophs hisF645 and pyrCΔ73. Format: cell-based.

For the molecule `O=C1O[C@@H]([C@H](O)CO)[C@H](O)[C@H]1O` [D-gal acid g-lactone], the “Responses of HepG2 Cells Cultured on Microcarriers After 68 hours in Culture and a 4 hour Color Development Period” value with HepG2 cells (Conc. 0.03 mM) is reported as 99.4 % of negative control; in the assay with HepG2 cells (Conc. 0.10 mM) it was 100.2 % of negative control; in the assay with HepG2 cells (Conc. 0.33 mM), 89.0 % of negative control; in the assay on HepG2 cells (Conc. 1.00 mM), 89.4 % of negative control; with HepG2 cells (Conc. 3.3 mM) it was 101.7 % of negative control; in the assay on HepG2 cells (Conc. 10 mM), 95.2 % of negative control. In addition, the “Responses of HepG2 Cells Cultured on Microcarriers After 68 hours in Culture and a 4 hour Color Development Period” value is 98.6 % of negative control in the assay on HepG2 cells (Conc. 15 mM) and 74.1 % of negative control in the assay on HepG2 cells (Conc. 20 mM).
Take `NC(=O)C[C@H](N)C(=O)O` [L-asparagine]: the “suitability as nitrogen source (growth, purple color)” value (“suitability as nitrogen source” for short) with E. coli MG1655 is reported as “positive”.
`NC(=O)CC[C@H](N)C(=O)O` [L-glutamine]: the response in words result with HepG2 cells (68 hours culture, responses greater than 140% of the negative control scored positive) was “narrow range of responsiveness”; in the assay on HL-60 cells it was “strong positive response”. Also, the activity at 30 µM in the assay with HepG2 cells (Conc. 0.03 mM) is 110%. Also, the activity at 100 µM in the assay on HepG2 cells (Conc. 0.10 mM) was found to be 151%. The activity at 330 µM with HepG2 cells (Conc. 0.33 mM) was 195%. In addition, the activity at 1000 µM in the assay with HepG2 cells (Conc. 1.00 mM) is 211%. Also, the activity at 3300 µM in the assay on HepG2 cells (Conc. 3.3 mM) is 212%. For the same molecule, in the assay on HepG2 cells (Conc. 10 mM), the activity at 10000 µM was 183%. For the same molecule, in the assay on HepG2 cells (Conc. 15 mM), the activity at 15000 µM was 150%. Besides, the activity at 20000 µM with HepG2 cells (Conc. 20 mM) was 101%. Besides, in the assay with E. coli MG1655, the “suitability as nitrogen source” value was “positive”.
Consider `N[C@@H](Cc1c[nH]cn1)C(=O)O` [L-histidine], for which, in the assay on E. coli MG1655, the “suitability as nitrogen source” value was “not suitable”. In addition, the “growth stimulation (well color)” value in assay [1] was “turned purple”.
Regarding `CC(C)[C@H](N)C(=O)O` [L-valine], the “suitability as nitrogen source” value with E. coli MG1655 was “not suitable”.
With `Cc1cn([C@H]2C[C@H](O)[C@@H](CO)O2)c(=O)[nH]c1=O` [Thymidine], the activity at 30 µM in the assay with HepG2 cells (Conc. 0.03 mM) stood at 87.9%. In addition, the activity at 100 µM in the assay on HepG2 cells (Conc. 0.10 mM) was determined as 101%. Moreover, in the assay with HepG2 cells (Conc. 0.33 mM), the activity at 330 µM was 97.9%. Further, the activity at 1000 µM in the assay with HepG2 cells (Conc. 1.00 mM) was found to be 99.4%. In addition, in the assay on HepG2 cells (Conc. 3.3 mM), the activity at 3300 µM is 89%. Besides, the activity at 10000 µM in the assay on HepG2 cells (Conc. 10 mM) came to 71.4%. In the assay with HepG2 cells (Conc. 15 mM), the activity at 15000 µM came to 65.2%. In the assay on HepG2 cells (Conc. 20 mM), the activity at 20000 µM was found to be 34.5%. For the same molecule, the “suitability as nitrogen source” value with E. coli MG1655 was “not suitable”.
